Experimental data from PubChem BioAssay AID2060495 (Molecular Pharmacology Branch, DTP, NCI, 2025).

System: 521955-158-R2-J5-PDC complex spheroid viability
Assay: Anticancer human tumor 521955-158-R2-J5-PDC patient-derived pancreatic carcinoma cell line growth inhibition [GQUAD]
Conditions: for IC50: curve of first compound; for viability, T/C: stronger effect = lower value
Method in brief: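 Multi-cell-type spheroids of tumor cells with HUVEC and mesenchymal stem cells, treated with drug combinations. Concentrations descend in half-log steps from near clinical Cmax, or from 10 microM where Cmax is unknown; viability read-out.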

[1] = second compound 0.0316 µM, first compound 0.0316 µM
[2] = second compound 0.0316 µM, first compound 0.1 µM
[3] = second compound 0.0316 µM, first compound 0.316 µM
[4] = second compound 0.0316 µM, first compound 1 µM
[5] = second compound 0.0316 µM, first compound 3.16 µM
[6] = second compound 0.0316 µM, first compound 10 µM
[7] = second compound 0.1 µM, first compound 0.0316 µM
[8] = second compound 0.1 µM, first compound 0.1 µM
[9] = second compound 0.1 µM, first compound 0.316 µM
[10] = second compound 0.1 µM, first compound 1 µM
[11] = second compound 0.1 µM, first compound 3.16 µM
[12] = second compound 0.1 µM, first compound 10 µM
[13] = second compound 0.316 µM, first compound 0.0316 µM
[14] = second compound 0.316 µM, first compound 0.1 µM
[15] = second compound 0.316 µM, first compound 0.316 µM
[16] = second compound 0.316 µM, first compound 1 µM
[17] = second compound 0.316 µM, first compound 3.16 µM
[18] = second compound 0.316 µM, first compound 10 µM
[19] = second compound 1 µM, first compound 0.0316 µM
[20] = second compound 1 µM, first compound 0.1 µM
[21] = second compound 1 µM, first compound 0.316 µM
[22] = second compound 1 µM, first compound 1 µM
[23] = second compound 1 µM, first compound 3.16 µM
[24] = second compound 1 µM, first compound 10 µM
[25] = second compound 3.16 µM, first compound 0.0316 µM
[26] = second compound 3.16 µM, first compound 0.1 µM
[27] = second compound 3.16 µM, first compound 0.316 µM
[28] = second compound 3.16 µM, first compound 1 µM
[29] = second compound 3.16 µM, first compound 3.16 µM
[30] = second compound 3.16 µM, first compound 10 µM
[31] = second compound 10 µM, first compound 0.0316 µM
[32] = second compound 10 µM, first compound 0.1 µM
[33] = second compound 10 µM, first compound 0.316 µM
[34] = second compound 10 µM, first compound 1 µM
[35] = second compound 10 µM, first compound 3.16 µM
[36] = second compound 10 µM, first compound 10 µM
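Further: spheroids exposed to agents for one week before reading.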
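Wherever viability, T/C is given: 100% = DMSO vehicle control viability.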

For `COc1ccc([C@@H](O)c2cc(-c3ncnc4cc(N5CCOCC5)ccc34)c(F)cc2Cl)nn1` + Cc1cnc(CNC(=O)c2c(=O)c3ccc(N4CCCN(C)CC4)nc3n3c2sc2ccccc23)cn1, the IC50 (second compound 0.0316 µM) was 292 nM, the IC50 (second compound 0.1 µM) was 225 nM and the IC50 (second compound 0.316 µM) was < 31.6 nM. For the same compound, the IC50 (second compound 1 µM) was < 31.6 nM, the IC50 (second compound 3.16 µM) was < 31.6 nM and the IC50 (second compound 10 µM) was < 31.6 nM. For the same compound, the viability, T/C [1] was 79.2%, the viability, T/C [2] was 62.5% and the viability, T/C [3] was 53.6%. For the same compound, the viability, T/C [4] was 30.4%, the viability, T/C [5] was 24.8% and the viability, T/C [6] was 25.6%. The viability, T/C [7] was 65.2%, the viability, T/C [8] was 56.8% and the viability, T/C [9] was 49.1%. It also gave a viability, T/C [10] of 31.7%, a viability, T/C [11] of 30.7% and a viability, T/C [12] of 20.9%. It also gave a viability, T/C [13] of 37.4%, a viability, T/C [14] of 35.3% and a viability, T/C [15] of 37%. It also gave a viability, T/C [16] of 24.5%, a viability, T/C [17] of 24.9% and a viability, T/C [18] of 18.3%. The viability, T/C [19] was 21.7%, the viability, T/C [20] was 20.7% and the viability, T/C [21] was 18.4%. For the same compound, the viability, T/C [22] was 18.2%, the viability, T/C [23] was 18.8% and the viability, T/C [24] was 18.1%. It also gave a viability, T/C [25] of 19.5%, a viability, T/C [26] of 20.4% and a viability, T/C [27] of 18.3%. The viability, T/C [28] was 16.9%, the viability, T/C [29] was 15.2% and the viability, T/C [30] was 12%. It also gave a viability, T/C [31] of 18.8%, a viability, T/C [32] of 18.6% and a viability, T/C [33] of 18.3%. It also gave a viability, T/C [34] of 16.8%, a viability, T/C [35] of 14.5% and a viability, T/C [36] of 11.6%.
With `CC1COCCN1c1cc(-c2ccnn2C)c2ccnc(-c3ccn[nH]3)c2n1` (stereo unspecified) + CN(C)c1ccc(Nc2c3ccc(NC(=O)CCN4CCCC4)cc3nc3cc(NC(=O)CCN4CCCC4)ccc23)cc1 the IC50 (second compound 0.0316 µM) was 66.1 nM, the IC50 (second compound 0.1 µM) was 54.6 nM and the IC50 (second compound 0.316 µM) was 55.7 nM. For the same compound, the IC50 (second compound 1 µM) was 52.7 nM, the IC50 (second compound 3.16 µM) was 52.6 nM and the IC50 (second compound 10 µM) was 32.6 nM. For the same compound, the viability, T/C [1] was 86.1%, the viability, T/C [2] was 30.1% and the viability, T/C [3] was 19.8%. For the same compound, the viability, T/C [4] was 20.6%, the viability, T/C [5] was 26.6% and the viability, T/C [6] was 33.5%. The viability, T/C [7] was 66.2%, the viability, T/C [8] was 33.7% and the viability, T/C [9] was 21.2%. The viability, T/C [10] was 20.9%, the viability, T/C [11] was 26.8% and the viability, T/C [12] was 40.1%. It also gave a viability, T/C [13] of 69.6%, a viability, T/C [14] of 31.2% and a viability, T/C [15] of 15.5%. The viability, T/C [16] was 19.8%, the viability, T/C [17] was 31.2% and the viability, T/C [18] was 39.2%. The viability, T/C [19] was 66.5%, the viability, T/C [20] was 31.1% and the viability, T/C [21] was 16%. For the same compound, the viability, T/C [22] was 18.4%, the viability, T/C [23] was 34.4% and the viability, T/C [24] was 30.2%. The viability, T/C [25] was 68%, the viability, T/C [26] was 28.4% and the viability, T/C [27] was 17.4%. For the same compound, the viability, T/C [28] was 17.5%, the viability, T/C [29] was 25.1% and the viability, T/C [30] was 33.6%. For the same compound, the viability, T/C [31] was 50.1%, the viability, T/C [32] was 36% and the viability, T/C [33] was 21.6%. For the same compound, the viability, T/C [34] was 23.8%, the viability, T/C [35] was 23.2% and the viability, T/C [36] was 26.6%.
For `CCCS(=O)(=O)Nc1ccc(F)c(C(=O)c2c[nH]c3ncc(-c4ccc(Cl)cc4)cc23)c1F` + Cc1[nH]c2ccc(F)cc2c1-c1nc2c3cccnc3c3ncccc3c2[nH]1, the IC50 (second compound 0.0316 µM) was > 10000 nM, the IC50 (second compound 0.1 µM) was > 10000 nM and the IC50 (second compound 0.316 µM) was > 10000 nM. The IC50 (second compound 1 µM) was > 10000 nM, the IC50 (second compound 3.16 µM) was > 10000 nM and the IC50 (second compound 10 µM) was > 10000 nM. It also gave a viability, T/C [1] of 103%, a viability, T/C [2] of 95.9% and a viability, T/C [3] of 79.8%. For the same compound, the viability, T/C [4] was 105%, the viability, T/C [5] was 198% and the viability, T/C [6] was 112%. For the same compound, the viability, T/C [7] was 104%, the viability, T/C [8] was 86% and the viability, T/C [9] was 72.1%. The viability, T/C [10] was 97.4%, the viability, T/C [11] was 226% and the viability, T/C [12] was 96.9%. The viability, T/C [13] was 97.2%, the viability, T/C [14] was 95.5% and the viability, T/C [15] was 78.6%. The viability, T/C [16] was 101%, the viability, T/C [17] was 226% and the viability, T/C [18] was 105%. It also gave a viability, T/C [19] of 99.9%, a viability, T/C [20] of 88.6% and a viability, T/C [21] of 78.1%. For the same compound, the viability, T/C [22] was 102%, the viability, T/C [23] was 272% and the viability, T/C [24] was 95.2%. The viability, T/C [25] was 92.3%, the viability, T/C [26] was 76% and the viability, T/C [27] was 65%. For the same compound, the viability, T/C [28] was 220%, the viability, T/C [29] was 265% and the viability, T/C [30] was 99.9%. The viability, T/C [31] was 99.8%, the viability, T/C [32] was 84.9% and the viability, T/C [33] was 64.9%. The viability, T/C [34] was 173%, the viability, T/C [35] was 258% and the viability, T/C [36] was 84.6%.
